Measurements reported in US20240261257A1, “METHODS OF TREATING BACTERIAL INFECTIONS” (Sheba Impact Ltd., priority 2023, published 2024).

How the values were obtained:
[1] = test system: MSSA SA 256; experiment: broth microdilution growth inhibition (CLSI), MSSA SA 256; format: cell-based, S. aureus; conditions: CAMHB broth microdilution, read-out: concentration (μM) which inhibits 50% (or more) growth
Protocol: (§1) Iron-free enterobactin from E. coli was purchased from Sigma-Aldrich (E3910) and from EMC (Tübingen, Germany), iron-free salmochelin S4 was purchased from EMC (Tübingen, Germany).
(§2) Bacterial strains were provided by the Clinical Microbiology Laboratory at Sheba Medical Center.
(§3) Bacterial final inoculum was 5×10^5 colony-forming units ml^−1. Enterobactin and salmochelin were dissolved in 100% dimethylsulfoxide (DMSO) to a stock solution of 10 μM and further diluted using CAMHB to final concentrations.

[2] = test system: S. aureus; experiment: antimicrobial activity against S. aureus (combinations, iron ions; strain not named); format: cell-based; conditions: iron ions added; FIGS. 6A-B
Protocol: as §1, §2, §3

[3] = test system: MRSA SA 742 USA300; experiment: broth microdilution growth inhibition (CLSI), MRSA SA 742 USA300; format: cell-based, S. aureus; conditions: CAMHB broth microdilution, read-out: concentration (μM) which inhibits 50% (or more) growth
Protocol: as §1, §2, §3

[4] = test system: MRSA SA 198 USA300; experiment: broth microdilution growth inhibition (CLSI), MRSA SA 198; format: cell-based, S. aureus; conditions: CAMHB broth microdilution, read-out: concentration (μM) which inhibits 50% (or more) growth
Protocol: as §1, §2, §3

[5] = test system: clinical isolates of MRSA USA300; experiment: inhibitory effect on clinical isolates of MRSA USA300 (FIGS. 1A-B); format: cell-based, Staphylococcus aureus
Protocol: as §1, §2, §3

[6] = test system: MRSA SA 196; experiment: broth microdilution growth inhibition (CLSI), MRSA SA 196; format: cell-based, S. aureus; conditions: CAMHB broth microdilution, read-out: concentration (μM) which inhibits 50% (or more) growth
Protocol: as §1, §2, §3

[7] = test system: MRSA SA 255; experiment: broth microdilution growth inhibition (CLSI), MRSA SA 255; format: cell-based, S. aureus; conditions: CAMHB broth microdilution, read-out: concentration (μM) which inhibits 50% (or more) growth
Protocol: as §1, §2, §3

[8] = test system: VRE 197; experiment: inhibitory effect on clinical isolate VRE 197; format: cell-based, vancomycin resistant Enterococci; conditions: FIG. 2B, FIG. 3B
Protocol: as §1, §2, §3

[9] = test system: VRE 195; experiment: inhibitory effect on clinical isolate VRE 195; format: cell-based, vancomycin resistant Enterococci; conditions: FIG. 2A, FIG. 3A
Protocol: as §1, §2, §3

[10] = test system: S. aureus ATCC 25923; experiment: broth microdilution growth inhibition (CLSI), S. aureus ATCC 25923; format: cell-based; conditions: CAMHB broth microdilution, read-out: concentration (μM) which inhibits 50% (or more) growth
Protocol: as §1, §2, §3

[11] = test system: MSSA SA 197 USA300; experiment: broth microdilution growth inhibition (CLSI), MSSA SA 197 USA300; format: cell-based, S. aureus; conditions: CAMHB broth microdilution, read-out: concentration (μM) which inhibits 50% (or more) growth
Protocol: as §1, §2, §3

Row | SMILES | IC50 [1] [µM] | antimicrobial activity against S. aureus in the presence of iron ions [2] | IC50 [3] [µM] | IC50 [4] [µM] | inhibitory effect on clinical isolates of MRSA USA300 [5] | IC50 [6] [µM] | IC50 [7] [µM] | inhibitory effect on clinical isolates of VRE 197 [8] | inhibitory effect on clinical isolates of VRE 195 [9] | IC50 [10] [µM] | IC50 [11] [µM]
1 | O=C(N[C@H]1COC(=O)[C@@H](NC(=O)c2cccc(O)c2O)COC(=O)[C@@H](NC(=O)c2cccc(O)c2O)COC1=O)c1cccc(O)c1O [Enterobactin, enterobactin] | > 5 | reduce but do not abolish | 10 | > 5 | inhibitory effect | 5 | > 5 | inhibitory effect | inhibitory effect | 6 ± 2.7 | > 5
2 | O=C(N[C@H]1COC(=O)[C@@H](NC(=O)c2cc([C@@H]3O[C@H](CO)[C@@H](O)[C@H](O)[C@H]3O)cc(O)c2O)COC(=O)[C@@H](NC(=O)c2cc([C@@H]3O[C@H](CO)[C@@H](O)[C@H](O)[C@H]3O)cc(O)c2O)COC1=O)c1cccc(O)c1O [Salmochelin, Salmochelin S4] | 5 | reduce but do not abolish | 3.12 ± 1.25 | 5 | inhibitory effect | 2.5 | 5 | inhibitory effect | inhibitory effect | 2.4 ± 0.22 | 2.5
